Measurements as given in patent publication US20250340557A1, “PYRIMIDINE DERIVATIVE” (ASKA PHARMACEUTICAL CO., LTD., priority 2022, published 2025).

These compounds were tested against T1, human mPGES-1 (Homo sapiens, UniProt O14684) (assay: Test for mPGES-1 inhibitory activity (microsomal enzyme, PGE2 EIA)). Settings: microsomes from COS-1 cells transfected with human mPGES-1 cDNA; substrate PGH2 1 μM; 4° C., 4 minutes; PGE2 measured by EIA; read-out: h mPGES1 IC50.
T1 construct: made in house; host or cells: COS-1 cells (transient transfection; microsomal fraction used as enzyme)
T1 sequence (O14684 1-152): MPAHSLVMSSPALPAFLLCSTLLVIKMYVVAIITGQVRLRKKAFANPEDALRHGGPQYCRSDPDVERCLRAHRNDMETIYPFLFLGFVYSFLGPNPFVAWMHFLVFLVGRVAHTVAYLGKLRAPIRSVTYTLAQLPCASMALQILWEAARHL
Type: biochemical
Outline: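 IC50 values were derived from EIA-quantified PGE2 after a 4 min, 4 °C reaction with PGH2 at 1 μM final, stopped with ferric chloride/citric acid. Beforehand, compound (2% DMSO final) sat 15 min at 4 °C with human mPGES-1 microsomes from transiently transfected COS-1 cells. Buffer was sodium phosphate pH 7.2 containing 2.5 mM reduced glutathione and 1 mM EDTA.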

| IC50 [nM] | Compound |
| --- | --- |
| 1 | O=c1cc(C(F)(F)F)nc(-c2c(C(F)(F)F)ccc(CNC(=O)[C@H]3C[C@H](OCc4ccc(Cl)cc4)C3)c2F)[nH]1 [Example 140, trans-3-[(4-chlorobenzyl)oxy]-N-{2-fluoro-3-[6-oxo-4-(trifluoromethyl)-1,6-dihydropyrimidin-2-yl]-4-(trifluoromethyl)benzyl}cyclobutane-1-carboxamide] |
| < 1 | Cc1cccc2ccc(N3CCC(C(=O)NCc4ccc(C(F)(F)F)c(-c5nc(C(F)(F)F)cc(=O)[nH]5)c4F)CC3)nc12 [Example 4, N-{2-fluoro-3-[6-oxo-4-(trifluoromethyl)-1,6-dihydropyrimidin-2-yl]-4-(trifluoromethyl)benzyl}-1-(8-methylquinolin-2-yl)piperidine-4-carboxamide] |
| 11 | Cc1nc(-c2c(C(F)(F)F)ccc(CNC(=O)C3CCN(c4ccc(C(F)(F)F)cn4)CC3)c2F)[nH]c(=O)c1C [Example 35, N-[3-(4,5-dimethyl-6-oxo-1,6-dihydropyrimidin-2-yl)-2-fluoro-4-(trifluoromethyl)benzyl]-1-[5-(trifluoromethyl)pyridin-2-yl]piperidine-4-carboxamide] |
| < 1 | O=c1cc(C(F)(F)F)nc(-c2c(C(F)(F)F)ccc(CNC(=O)[C@H]3CC[C@H](OCc4ccc(Cl)cc4F)CC3)c2F)[nH]1 [Example 118, trans-4-[(4-chloro-2-fluorobenzyl)oxy]-N-{2-fluoro-3-[6-oxo-4-(trifluoromethyl)-1,6-dihydropyrimidin-2-yl]-4-(trifluoromethyl)benzyl}cyclohexane-1-carboxamide] |
| 10 | O=C(NCc1ccc(C(F)(F)F)c(-c2nc(C(F)(F)F)cc(=O)[nH]2)c1F)C1CCN(c2ccc(OC(F)F)cc2)CC1 [Example 71, 1-[4-(difluoromethoxy)phenyl]-N-{2-fluoro-3-[6-oxo-4-(trifluoromethyl)-1,6-dihydropyrimidin-2-yl]-4-(trifluoromethyl)benzyl}piperidine-4-carboxamide] |
| 2.1 | Cc1cccc2ccc(N3CCC(C(=O)NCc4ccc(C(F)(F)F)c(-c5nc(C(F)F)cc(=O)[nH]5)c4F)CC3)nc12 [Example 12, N-{3-[4-(difluoromethyl)-6-oxo-1,6-dihydropyrimidin-2-yl]-2-fluoro-4-(trifluoromethyl)benzyl}-1-(8-methylquinolin-2-yl)piperidine-4-carboxamide] |
| 49 | Cc1cc(=O)[nH]c(-c2c(C(F)(F)F)ccc(CNC(=O)C3CCN(c4ncc(Cl)cc4Cl)CC3)c2F)n1 [Example 46, 1-(3,5-dichloropyridin-2-yl)-N-[2-fluoro-3-(4-methyl-6-oxo-1,6-dihydropyrimidin-2-yl)-4-(trifluoromethyl)benzyl]piperidine-4-carboxamide] |
| < 1 | O=c1cc(C(F)(F)F)nc(-c2c(C(F)(F)F)ccc(CNC(=O)[C@H]3CC[C@H](OCc4ccc(Cl)cc4)CC3)c2F)[nH]1 [Example 101, trans-4-[(4-chlorobenzyl)oxy]-N-{2-fluoro-3-[6-oxo-4-(trifluoromethyl)-1,6-dihydropyrimidin-2-yl]-4-(trifluoromethyl)benzyl}cyclohexane-1-carboxamide] |
| 0.64 | Cc1cccc2ccc(N3CCC(C(=O)NCc4ccc(Cl)c(-c5nccc(=O)[nH]5)c4)CC3)nc12 [Example 8, N-[4-chloro-3-(6-oxo-1,6-dihydropyrimidin-2-yl)benzyl]-1-(8-methylquinolin-2-yl)piperidine-4-carboxamide] |
| 19 | CCc1cc(=O)[nH]c(-c2c(C(F)(F)F)ccc(CNC(=O)C3CCN(c4ccc(Cl)c(OC)c4)CC3)c2F)n1 [Example 98, 1-(4-chloro-3-methoxyphenyl)-N-[3-(4-ethyl-6-oxo-1,6-dihydropyrimidin-2-yl)-2-fluoro-4-(trifluoromethyl)benzyl]piperidine-4-carboxamide] |
| 10 | O=c1cc(C(F)F)nc(-c2c(C(F)(F)F)ccc(CNC(=O)[C@H]3CC[C@H](OCc4ccc(Cl)cc4)CC3)c2F)[nH]1 [Example 116, trans-4-[(4-chlorobenzyl)oxy]-N-{3-[4-(difluoromethyl)-6-oxo-1,6-dihydropyrimidin-2-yl]-2-fluoro-4-(trifluoromethyl)benzyl}cyclohexane-1-carboxamide] |
| 23 | Cc1cc(=O)[nH]c(-c2c(C(F)(F)F)ccc(CNC(=O)[C@H]3CC[C@H](OCc4ccc(Cl)cc4)CC3)c2F)n1 [Example 105, trans-4-[(4-chlorobenzyl)oxy]-N-[2-fluoro-3-(4-methyl-6-oxo-1,6-dihydropyrimidin-2-yl)-4-(trifluoromethyl)benzyl]cyclohexane-1-carboxamide] |
| < 1 | Cc1cccc2ccc(N3CCC(F)(C(=O)NCc4ccc(C(F)(F)F)c(-c5nc(C(F)(F)F)cc(=O)[nH]5)c4F)CC3)nc12 [Example 15, 4-fluoro-N-{2-fluoro-3-[6-oxo-4-(trifluoromethyl)-1,6-dihydropyrimidin-2-yl]-4-(trifluoromethyl)benzyl}-1-(8-methylquinolin-2-yl)piperidine-4-carboxamide] |

Same assay, conditions: microsomes of COS-1 cells transfected with human mPGES-1 cDNA; PGH2 1 μM; 4° C., 4 minutes; PGE2 by EIA; read-out: h mPGES1 IC50

| IC50 [nM] | Compound |
| --- | --- |
| 14 | Cc1nc(-c2c(C(F)(F)F)ccc(CNC(=O)[C@H]3C[C@H](OCc4cc(F)cc(F)c4)C3)c2F)[nH]c(=O)c1F [Example 221, trans-3-[(3,5-difluorobenzyl)oxy]-N-[2-fluoro-3-(5-fluoro-4-methyl-6-oxo-1,6-dihydropyrimidin-2-yl)-4-(trifluoromethyl)benzyl]cyclobutane-1-carboxamide] |
| < 1 | O=C(NCc1ccc(C(F)(F)F)c(-c2nc(C(F)(F)F)cc(=O)[nH]2)c1F)N1CCC(Oc2ccc(C(F)(F)F)cc2)CC1 [Example 260, N-{2-fluoro-3-[6-oxo-4-(trifluoromethyl)-1,6-dihydropyrimidin-2-yl]-4-(trifluoromethyl)benzyl}-4-[4-(trifluoromethyl)phenoxy]piperidine-1-carboxamide] |
| < 1 | O=c1cc(C(F)(F)F)nc(-c2c(C(F)(F)F)ccc(CNC(=O)[C@H]3C[C@H](OCc4ccc(F)cc4Cl)C3)c2F)[nH]1 [Example 154, trans-3-[(2-chloro-4-fluorobenzyl)oxy]-N-{2-fluoro-3-[6-oxo-4-(trifluoromethyl)-1,6-dihydropyrimidin-2-yl]-4-(trifluoromethyl)benzyl}cyclobutane-1-carboxamide] |
| < 1 | O=c1cc(C(F)F)nc(-c2c(C(F)(F)F)ccc(CNC(=O)[C@H]3C[C@H](OCc4cccc(F)c4F)C3)c2F)[nH]1 [Example 172, trans-3-[(2,3-difluorobenzyl)oxy]-N-{3-[4-(difluoromethyl)-6-oxo-1,6-dihydropyrimidin-2-yl]-2-fluoro-4-(trifluoromethyl)benzyl}cyclobutane-1-carboxamide] |
| < 1 | O=c1[nH]c(-c2c(C(F)(F)F)ccc(CNC(=O)[C@H]3C[C@H](OCc4cccc(Cl)c4)C3)c2F)nc2c1CCC2 [Example 247, trans-3-[(3-chlorobenzyl)oxy]-N-[2-fluoro-3-(4-oxo-4,5,6,7-tetrahydro-3H-cyclopenta[d]pyrimidin-2-yl)-4-(trifluoromethyl)benzyl]cyclobutane-1-carboxamide] |
| 45 | O=C(NCc1ccc(C(F)(F)F)c(-c2nc(C(F)(F)F)cc(=O)[nH]2)c1F)C1(c2ccc(Cl)cc2)CCCC1 [Example 281, 1-(4-chlorophenyl)-N-{2-fluoro-3-[6-oxo-4-(trifluoromethyl)-1,6-dihydropyrimidin-2-yl]-4-(trifluoromethyl)benzyl}cyclopentane-1-carboxamide] |
| 9 | CCc1cc(=O)[nH]c(-c2c(C(F)(F)F)ccc(CNC(=O)[C@H]3C[C@H](OCc4ccc(F)cc4Cl)C3)c2F)n1 [Example 207, trans-3-[(2-chloro-4-fluorobenzyl)oxy]-N-[3-(4-ethyl-6-oxo-1,6-dihydropyrimidin-2-yl)-2-fluoro-4-(trifluoromethyl)benzyl]cyclobutane-1-carboxamide] |
| < 1 | O=c1cc(C(F)F)nc(-c2c(C(F)(F)F)ccc(CNC(=O)[C@H]3C[C@H](OCc4ccccc4Cl)C3)c2F)[nH]1 [Example 161, trans-3-[(2-chlorobenzyl)oxy]-N-{3-[4-(difluoromethyl)-6-oxo-1,6-dihydropyrimidin-2-yl]-2-fluoro-4-(trifluoromethyl)benzyl}cyclobutane-1-carboxamide] |
| < 1 | Cc1cc(=O)[nH]c(-c2c(C(F)(F)F)ccc(CNC(=O)[C@H]3C[C@H](OCc4cc(Cl)ccc4F)C3)c2F)n1 [Example 192, trans-3-[(5-chloro-2-fluorobenzyl)oxy]-N-[2-fluoro-3-(4-methyl-6-oxo-1,6-dihydropyrimidin-2-yl)-4-(trifluoromethyl)benzyl]cyclobutane-1-carboxamide] |
| < 1 | CCc1nc(-c2c(C(F)(F)F)ccc(CNC(=O)[C@H]3C[C@H](OCc4ccc(Cl)cc4)C3)c2F)[nH]c(=O)c1F [Example 231, trans-3-[(4-chlorobenzyl)oxy]-N-[3-(4-ethyl-5-fluoro-6-oxo-1,6-dihydropyrimidin-2-yl)-2-fluoro-4-(trifluoromethyl)benzyl]cyclobutane-1-carboxamide] |
| < 1 | Cc1cc(=O)[nH]c(-c2c(C(F)(F)F)ccc(CNC(=O)[C@H]3C[C@H](OCc4cccc(Cl)c4F)C3)c2F)n1 [Example 191, trans-3-[(3-chloro-2-fluorobenzyl)oxy]-N-[2-fluoro-3-(4-methyl-6-oxo-1,6-dihydropyrimidin-2-yl)-4-(trifluoromethyl)benzyl]cyclobutane-1-carboxamide] |
